Test results: paper PMC12019385 (Scientific Reports, 2025)

Assays:
[1] = target: Hsp70 A (heat shock 70 kDa protein A) (Caenorhabditis elegans, UniProt P09446); experiment: microscale thermophoresis; assay type: binding
[2] = target: V-ATPase A (V-type proton ATPase catalytic subunit A) (Caenorhabditis elegans, UniProt Q9XW92); experiment: microscale thermophoresis; assay type: binding
V-ATPase A (V-type proton ATPase catalytic subunit A), sequence (Q9XW92 whole entry): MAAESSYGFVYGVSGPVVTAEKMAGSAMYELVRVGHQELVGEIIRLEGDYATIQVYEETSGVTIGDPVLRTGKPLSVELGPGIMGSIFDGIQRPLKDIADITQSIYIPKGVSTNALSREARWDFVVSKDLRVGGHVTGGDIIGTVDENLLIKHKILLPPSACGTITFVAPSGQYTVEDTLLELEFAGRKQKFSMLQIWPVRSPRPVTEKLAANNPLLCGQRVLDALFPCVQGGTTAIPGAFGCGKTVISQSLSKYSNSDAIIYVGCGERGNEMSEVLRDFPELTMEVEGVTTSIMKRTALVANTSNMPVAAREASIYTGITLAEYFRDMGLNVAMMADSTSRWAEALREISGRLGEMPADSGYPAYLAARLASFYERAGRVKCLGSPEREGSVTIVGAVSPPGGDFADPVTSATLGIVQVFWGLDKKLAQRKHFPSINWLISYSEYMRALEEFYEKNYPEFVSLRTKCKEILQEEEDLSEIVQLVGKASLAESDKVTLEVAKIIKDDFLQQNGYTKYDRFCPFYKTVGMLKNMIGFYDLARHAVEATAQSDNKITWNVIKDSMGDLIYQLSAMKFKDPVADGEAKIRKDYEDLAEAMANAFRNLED

Hsp70 A (heat shock 70 kDa protein A), sequence (P09446 whole entry): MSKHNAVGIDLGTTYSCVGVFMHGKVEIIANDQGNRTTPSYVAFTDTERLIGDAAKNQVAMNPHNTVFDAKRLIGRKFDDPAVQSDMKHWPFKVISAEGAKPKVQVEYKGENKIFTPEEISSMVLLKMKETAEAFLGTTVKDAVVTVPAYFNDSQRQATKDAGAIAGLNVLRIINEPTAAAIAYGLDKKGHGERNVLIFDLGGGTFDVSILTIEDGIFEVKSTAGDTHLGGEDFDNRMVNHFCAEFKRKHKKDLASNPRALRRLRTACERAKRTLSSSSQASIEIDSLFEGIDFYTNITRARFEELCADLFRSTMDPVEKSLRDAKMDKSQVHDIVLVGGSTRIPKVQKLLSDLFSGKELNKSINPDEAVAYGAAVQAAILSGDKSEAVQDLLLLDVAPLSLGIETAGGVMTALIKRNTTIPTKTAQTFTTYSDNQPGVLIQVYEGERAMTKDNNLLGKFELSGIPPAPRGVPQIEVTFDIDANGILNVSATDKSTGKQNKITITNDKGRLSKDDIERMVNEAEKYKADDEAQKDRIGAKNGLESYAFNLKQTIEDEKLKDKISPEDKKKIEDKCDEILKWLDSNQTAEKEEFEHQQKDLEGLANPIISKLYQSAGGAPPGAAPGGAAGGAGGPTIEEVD

`CCCCCCCCCC(C)=O` [2-undecanone] gave a Kd [1] of 117 ± 16.3 nM and a Kd [2] of 302 ± 43.9 nM.
